In assay [1] the target is T1, Bla2 (Bacillus anthracis, UniProt Q93T40). As to the kind of experiment: biochemical. The class given is biochemical.
Assay [2] deals with T1, Bla2. The assay is classed as biochemical.
The test system of assay [3] is Bla2. To be noted: cited from earlier work.

Read-outs that look alike come from different tables or passages of the source.

T1 sequence (Q93T40 1-256): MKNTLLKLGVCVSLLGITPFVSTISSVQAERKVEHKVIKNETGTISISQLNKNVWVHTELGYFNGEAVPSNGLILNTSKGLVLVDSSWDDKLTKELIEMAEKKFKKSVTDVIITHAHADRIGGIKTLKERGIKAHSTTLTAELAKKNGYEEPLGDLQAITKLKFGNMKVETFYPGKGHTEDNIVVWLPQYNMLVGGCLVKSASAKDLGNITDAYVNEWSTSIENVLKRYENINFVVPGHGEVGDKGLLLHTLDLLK

Broadly, the IC50 is the concentration that gives 50% inhibition. Usually Ki stands for the equilibrium dissociation constant of an inhibitor or competing ligand from its target. Read a low Ki as higher affinity. As to “N-hydroxy-4-(7-(hydroxyamino)-7-oxoheptyl)-3-methoxybenzamide [Compound 6]”, at Bla2 [1] (pH 7, read-out: IC50), the IC50 turned out to be 14.9 ± 9.8 µM. Besides, at Bla2 [2], the affinity, expressed as Ki, was 4.7 ± 1.4 µM and the mode of inhibition entry is “competitive inhibition”. The Ki at Bla2 [2] (pH 7) amounted to 4.7 ± 1.4 µM.
Take `O=C(CCCCCCC(=O)Nc1ccccc1)NO` [SAHA, suberoylanilide hydroxamic acid, reference compound]: the IC50 at Bla2 [1] was greater than 100 µM.
As for “3-chloro-N-hydroxy-4-(7-(hydroxyamino)-7-oxoheptyl)benzamide [Compound 4]”, on Bla2 [1] (pH 7, read-out: IC50), the IC50 is 20 ± 5 µM. Also, the inhibitory constant (Ki) on Bla2 [2] and on Bla2 [2] (pH 7) was 6.4 ± 1.7 µM in each case. In addition, at Bla2 [2], the mode of inhibition result is given as “competitive inhibition”.
Take `O=C(CCCCCOc1cccc(C(=O)NO)c1)NO` [N-hydroxy-3-((6-(hydroxyamino)-6-oxohexyl)oxy)benzamide]: the inhibition result in the assay on Bla2 [3] is “significant inhibition”.
For `CCCCCCCOc1cccc(C(=O)NO)c1` [3-(heptyloxy)-N-hydroxybenzamide], the inhibition result with Bla2 [3] was “no inhibition”.
